Read-outs that look alike come from different tables or passages of the source.
Tests used:
[1] = target: 5-HT4 receptor (Homo sapiens (Human), UniProt Q13639); experiment: Agonist nature as regards the 5-HT4 receptor: accumulation of intracellular cyclic AMP in stably transfected CHO cells; assay type: cell-based; details: percentage of agonist effect in relation to serotonin
[2] = target: peripheral site of eeAChE (Electrophorus electricus (Electric eel) (Gymnotus electricus), UniProt O42275); assay type: binding
Sequence of peripheral site of eeAChE (O42275 whole entry, looked up): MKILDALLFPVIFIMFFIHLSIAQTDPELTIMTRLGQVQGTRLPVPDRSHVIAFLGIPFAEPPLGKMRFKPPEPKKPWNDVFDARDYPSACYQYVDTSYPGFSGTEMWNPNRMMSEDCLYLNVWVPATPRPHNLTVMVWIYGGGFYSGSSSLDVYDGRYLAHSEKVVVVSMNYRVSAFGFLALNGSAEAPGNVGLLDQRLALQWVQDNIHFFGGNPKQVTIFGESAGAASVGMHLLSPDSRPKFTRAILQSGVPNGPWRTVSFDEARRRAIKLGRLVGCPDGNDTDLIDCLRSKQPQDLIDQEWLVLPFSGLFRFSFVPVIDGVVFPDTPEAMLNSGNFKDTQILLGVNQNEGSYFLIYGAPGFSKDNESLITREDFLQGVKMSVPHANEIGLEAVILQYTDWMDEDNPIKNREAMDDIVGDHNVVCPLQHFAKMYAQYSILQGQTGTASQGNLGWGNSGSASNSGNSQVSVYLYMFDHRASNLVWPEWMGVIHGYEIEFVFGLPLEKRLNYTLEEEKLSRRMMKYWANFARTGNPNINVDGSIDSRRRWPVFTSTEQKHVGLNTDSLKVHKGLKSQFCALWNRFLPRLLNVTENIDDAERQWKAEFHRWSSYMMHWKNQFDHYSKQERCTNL
Procedure: When propidium diiodide binds to the peripheral site of AChE, it produces an increase in fluorescence which can be used as proof of its binding to the enzyme. Fluorescence measurements are made in 200 μL of solution in 96-well plates using a Tecan Infinite M2000 microplate reader. […] 50 μL of micromolar solution of propidium diiodide are added before measuring fluorescence. […] Each test is repeated at least three times.

[3] = system: male NMRI mice; experiment: Object recognition test; assay type: in vivo; details: intraperitoneal, 30 minutes before the acquisition session
Procedure: The tests are performed using male NMRI mice of around 3 months old at the time of the tests.
The object recognition test is based on the spontaneous preference of rodents for novelty, without bringing food deprivation or electric shock into play.
The device comprises a square PVC enclosure (33×33×20 cm, illuminated at 10 lux in the center) with black surfaces. The test is performed in 2 phases: one habituation phase, allowing the animals to become habituated to the test environment (enclosure, room, experimenter), the other a memory performance assessment phase. A camera is positioned above the device and connected to a video-tracking system (ViewPoint®). During the behavioral tests, the experimenter is not present in the experimentation room but remains in an adjacent room that houses the video-tracking system.
After a habituation phase (Day 1, individual exposure for 5 minutes to the open-field with no objects), the memory performance assessment phase begins on the 2nd day and is made up of 2 sessions, one the presentation session and the other the test session. […] The exploration time of each object, A1 and A2 respectively, as well as the time required to achieve the exploration criterion are measured. […] The time required to achieve the exploration criterion as well as the exploration time of the new object are measured and the latter is compared to the chance level (15 s). […]

[4] = target: human acetylcholinesterase (Homo sapiens (Human), UniProt P22303); experiment: biochemical; assay type: biochemical; details: acetylcholinesterase from human erythrocytes
Sequence of human acetylcholinesterase (P22303 32-574 with tags or gaps limits assumed): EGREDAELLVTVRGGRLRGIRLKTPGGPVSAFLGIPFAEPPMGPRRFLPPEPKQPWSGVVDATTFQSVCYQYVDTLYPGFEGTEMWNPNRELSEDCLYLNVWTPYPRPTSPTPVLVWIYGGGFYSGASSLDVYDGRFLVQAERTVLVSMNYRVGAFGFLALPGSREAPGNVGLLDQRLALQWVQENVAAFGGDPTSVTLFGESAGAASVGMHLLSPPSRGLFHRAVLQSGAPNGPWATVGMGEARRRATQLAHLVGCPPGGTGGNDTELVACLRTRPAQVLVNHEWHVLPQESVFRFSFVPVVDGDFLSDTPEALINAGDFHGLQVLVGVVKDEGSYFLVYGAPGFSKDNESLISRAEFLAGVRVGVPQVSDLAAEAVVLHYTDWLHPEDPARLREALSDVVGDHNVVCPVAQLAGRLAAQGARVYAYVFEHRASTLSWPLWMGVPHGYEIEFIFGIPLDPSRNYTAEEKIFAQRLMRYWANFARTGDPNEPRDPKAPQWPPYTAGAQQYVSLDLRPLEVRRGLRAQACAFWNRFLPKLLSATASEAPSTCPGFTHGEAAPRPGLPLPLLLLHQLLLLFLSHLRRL
Procedure: 100 μL of a 0.3 mM 5,5-dithiobis(2-nitrobenzoic acid) (DTNB) solution in a pH 7.4 phosphate buffer are introduced into a 96-well plate, followed by 50 μL of compound to be tested in solution in DMSO and 50 μL of enzyme solution. After 5 min of preincubation, the reaction is initiated by injecting 50 μL of 10 mM acetylthiocholine iodide solution. […] Donepezil is used as a reference product.

[5] = target: 5-HT4 receptors (Cavia porcellus (Guinea pig), UniProt O70528); experiment: Affinity as regards 5-HT4 receptors: competition against [3H]-GR113808 on striatal membranes; assay type: binding
Sequence of 5-HT4 receptors (O70528 whole entry): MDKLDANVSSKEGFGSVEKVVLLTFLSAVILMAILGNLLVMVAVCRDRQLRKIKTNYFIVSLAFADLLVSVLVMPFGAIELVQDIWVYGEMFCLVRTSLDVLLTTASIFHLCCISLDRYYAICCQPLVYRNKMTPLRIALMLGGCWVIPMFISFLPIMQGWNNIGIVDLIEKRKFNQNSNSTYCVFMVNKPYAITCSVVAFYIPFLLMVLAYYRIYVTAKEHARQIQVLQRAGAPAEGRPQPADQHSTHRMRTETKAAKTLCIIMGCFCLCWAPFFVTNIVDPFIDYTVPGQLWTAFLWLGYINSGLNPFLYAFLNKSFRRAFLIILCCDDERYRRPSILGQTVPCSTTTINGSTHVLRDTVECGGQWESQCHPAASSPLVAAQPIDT

[6] = 10^-5 M solution of compound, eeAChE, propidium diiodide fluorescence

Sequence of 5-HT4 receptor (Q13639 whole entry): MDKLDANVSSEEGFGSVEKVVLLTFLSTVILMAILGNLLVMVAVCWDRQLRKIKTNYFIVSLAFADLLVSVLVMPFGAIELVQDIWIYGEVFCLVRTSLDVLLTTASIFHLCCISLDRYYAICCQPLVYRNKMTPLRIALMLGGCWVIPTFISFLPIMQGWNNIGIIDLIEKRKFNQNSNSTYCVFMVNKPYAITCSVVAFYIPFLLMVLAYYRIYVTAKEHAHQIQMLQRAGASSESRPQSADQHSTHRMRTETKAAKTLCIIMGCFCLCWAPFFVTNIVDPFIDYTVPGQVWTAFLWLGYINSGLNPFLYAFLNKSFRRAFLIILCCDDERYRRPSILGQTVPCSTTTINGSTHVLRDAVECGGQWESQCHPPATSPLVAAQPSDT

SMILES | Agonistic effect % [1] [%] | % Propidium Displacement [2, 6] [%] | other results
COc1cc(N)c(Cl)cc1C(=O)CCC1CCN(CC2CCCCCC2)CC1 [Compound 12, 1-(4-amino-5-chloro-2-methoxyphenyl)-3-[1-(cycloheptylmethyl)-4-piperidyl]propan-1-one] | 21 | 20 | 
COc1cc(N)c(Cl)cc1C(=O)CCC1CCN(CC2CCCC2)CC1 [Compound 8, 1-(4-amino-5-chloro-2-methoxyphenyl)-3-[1-(cyclopentylmethyl)-4-piperidyl]propan-1-one] | 12 | 20 | 
COc1cc(N)c(F)cc1C(=O)CCC1CCN(CC2CCCCC2)CC1 [Compound 5, 1-(4-amino-5-fluoro-2-methoxyphenyl)-3-[1-(cyclohexylmethyl)-4-piperidyl]propan-1-one] | 16 | 22 | 
COc1cc(N)c(Br)cc1C(=O)CCC1CCN(CC2CCCCC2)CC1 [Compound 14, 1-(4-amino-5-bromo-2-methoxyphenyl)-3-[1-(cyclohexylmethyl)-4-piperidyl]propan-1-one] |  |  | % Propidium Displacement [2]: 20%
COCCCN1CCC(NC(=O)c2cc(Cl)c(N)c3c2OCC3)CC1 [prucalopride, reference compound] | 100 |  | 
COc1cc(N)c(Cl)cc1C(=O)CCC1CCN(CC2CCCCC2)CC1 [Compound 9, 1-(4-amino-5-chloro-2-methoxyphenyl)-3-[1-(cyclohexylmethyl)-4-piperidyl]propan-1-one] | 22 | 22 | dose of maximum effect on object recognition performance [3]: 0.3 mg/kg; object recognition performance compared to the control batch ([3]; 24 hours intersession): improvement in object recognition performance compared to the control batch
COc1cc(N)c(Cl)cc1C(=O)NCC1CCN(CC2CCCCC2)CC1 [Compound 17, 4-amino-5-chloro-[[1-(cyclohexylmethyl)-4-piperidyl]methyl]-2-methoxybenzamide] |  |  | IC50 [4]: 3.73 µM; Ki ([5]; 0.1 nM [3H]-GR113808, guinea pig striatal membranes, read-out: Ki): 0.0023 µM
Nc1cc(OCCF)c(C(=O)CCC2CCN(CC3CCCCC3)CC2)cc1Cl [Compound 23, 1-[4-amino-5-chloro-2-(2-fluoroéthoxy)phenyl]-3-[1-(cyclohexylmethyl)-4-piperidyl]propan-1-one] |  | 22 | 
COc1cc(N)c(Cl)cc1C(=O)CCC1CCN(CCC2CCCCC2)CC1 [Compound 16, 1-(4-amino-5-chloro-2-methoxyphenyl)-3-[1-(cyclohexylethyl)-4-piperidyl]propan-1-one] |  |  | % Propidium Displacement [2]: 21%
CCCCN1CCC(CCC(=O)c2cc(Br)c(N)cc2OC)CC1 [Compound 2, 1-(4-amino-5-bromo-2-methoxyphenyl)-3-[1-butyl-4-piperidyl]propan-1-one] |  |  | IC50 [4]: 0.445 µM; Ki [5]: 0.0089 µM

— patent US9663465B2, “Acetylcholinesterase inhibitors and promnesiant serotonin 5-HT4 receptor agonists, their methods of preparation and the pharmaceutical compositions containing the same” (UNIVERSITE DE CAEN, priority 2013, dated 2017)
